Our source for the IC50 values is US9453026B2, “ACC inhibitors and uses thereof” (Gilead Apollo, Inc., priority 2011, dated 2016).

Bounds are passed on as bounds.

The test deals with ACC2 (Homo sapiens, UniProt O00763). As to the kind of experiment: In vitro ACC2 inhibition assay (ADP-Glo). The class given is biochemical. Particulars: read-out: ACC2. A digest of the protocol:
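Enzyme (human ACC1 or ACC2) and compound, serially diluted 1:3 over 11 points from a 600 uM DMSO stock, were preincubated 15 min before substrate addition.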

ACC2, sequence (O00763 whole entry, species assumed): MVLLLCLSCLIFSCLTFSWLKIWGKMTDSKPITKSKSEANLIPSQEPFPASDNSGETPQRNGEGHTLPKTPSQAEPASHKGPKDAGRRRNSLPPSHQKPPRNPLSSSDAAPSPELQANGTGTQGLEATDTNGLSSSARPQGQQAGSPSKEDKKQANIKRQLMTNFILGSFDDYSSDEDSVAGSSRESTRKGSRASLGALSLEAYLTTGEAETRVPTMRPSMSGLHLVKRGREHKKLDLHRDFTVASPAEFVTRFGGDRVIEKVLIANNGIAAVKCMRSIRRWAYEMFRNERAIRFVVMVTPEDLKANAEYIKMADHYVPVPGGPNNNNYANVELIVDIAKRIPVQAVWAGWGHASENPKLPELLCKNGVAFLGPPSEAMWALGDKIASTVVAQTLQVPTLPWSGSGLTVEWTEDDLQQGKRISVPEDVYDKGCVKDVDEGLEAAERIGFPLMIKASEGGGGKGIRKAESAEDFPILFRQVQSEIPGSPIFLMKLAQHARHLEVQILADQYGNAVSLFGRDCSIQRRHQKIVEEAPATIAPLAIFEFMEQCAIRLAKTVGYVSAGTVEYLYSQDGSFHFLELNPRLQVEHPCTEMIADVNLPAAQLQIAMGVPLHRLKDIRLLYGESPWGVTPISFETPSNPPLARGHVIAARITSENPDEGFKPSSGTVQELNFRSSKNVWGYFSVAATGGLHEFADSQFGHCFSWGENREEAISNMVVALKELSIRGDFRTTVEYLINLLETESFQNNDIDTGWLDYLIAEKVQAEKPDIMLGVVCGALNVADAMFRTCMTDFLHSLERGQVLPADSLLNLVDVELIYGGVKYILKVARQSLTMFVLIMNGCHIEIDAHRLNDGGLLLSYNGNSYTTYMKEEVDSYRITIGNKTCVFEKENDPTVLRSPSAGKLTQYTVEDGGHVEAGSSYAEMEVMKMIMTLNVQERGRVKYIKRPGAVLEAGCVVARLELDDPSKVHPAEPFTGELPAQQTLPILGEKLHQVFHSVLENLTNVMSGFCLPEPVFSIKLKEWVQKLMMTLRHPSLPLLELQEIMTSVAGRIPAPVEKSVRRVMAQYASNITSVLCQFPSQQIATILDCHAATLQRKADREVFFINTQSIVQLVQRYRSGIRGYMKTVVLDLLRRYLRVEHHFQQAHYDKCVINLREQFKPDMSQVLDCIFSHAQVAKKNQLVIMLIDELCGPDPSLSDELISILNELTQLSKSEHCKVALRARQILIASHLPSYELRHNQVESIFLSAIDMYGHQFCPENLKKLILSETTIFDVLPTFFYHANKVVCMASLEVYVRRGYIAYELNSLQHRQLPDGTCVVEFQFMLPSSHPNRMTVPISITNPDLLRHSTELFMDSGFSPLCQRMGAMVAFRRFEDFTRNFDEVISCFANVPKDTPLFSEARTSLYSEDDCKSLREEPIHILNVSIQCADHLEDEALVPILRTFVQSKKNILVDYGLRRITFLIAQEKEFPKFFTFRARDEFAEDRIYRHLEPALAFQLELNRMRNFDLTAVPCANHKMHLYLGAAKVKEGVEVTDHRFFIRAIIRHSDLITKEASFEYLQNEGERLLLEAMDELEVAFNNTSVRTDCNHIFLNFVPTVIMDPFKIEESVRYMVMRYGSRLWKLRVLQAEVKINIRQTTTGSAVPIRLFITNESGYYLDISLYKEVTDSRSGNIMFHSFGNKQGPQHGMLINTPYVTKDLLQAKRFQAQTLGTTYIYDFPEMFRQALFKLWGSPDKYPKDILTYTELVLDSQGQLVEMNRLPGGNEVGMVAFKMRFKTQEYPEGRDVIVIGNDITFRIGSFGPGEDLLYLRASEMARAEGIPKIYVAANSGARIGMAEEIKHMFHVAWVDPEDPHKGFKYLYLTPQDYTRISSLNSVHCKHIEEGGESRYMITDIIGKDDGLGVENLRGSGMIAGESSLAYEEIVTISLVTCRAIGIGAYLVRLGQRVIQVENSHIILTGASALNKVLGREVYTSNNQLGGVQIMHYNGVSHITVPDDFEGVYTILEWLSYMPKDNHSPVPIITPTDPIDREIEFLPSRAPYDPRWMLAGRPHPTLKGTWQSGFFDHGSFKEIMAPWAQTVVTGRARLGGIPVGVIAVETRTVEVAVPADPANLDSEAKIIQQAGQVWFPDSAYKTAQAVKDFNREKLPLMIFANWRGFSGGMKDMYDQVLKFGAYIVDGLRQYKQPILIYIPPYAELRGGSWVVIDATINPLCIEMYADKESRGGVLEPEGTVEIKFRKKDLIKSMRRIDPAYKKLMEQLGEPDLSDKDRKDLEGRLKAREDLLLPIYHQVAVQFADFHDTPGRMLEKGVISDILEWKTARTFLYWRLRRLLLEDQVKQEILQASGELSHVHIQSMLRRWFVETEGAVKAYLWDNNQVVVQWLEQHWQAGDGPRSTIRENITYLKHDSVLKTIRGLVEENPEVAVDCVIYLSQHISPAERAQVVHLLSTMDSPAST

For `CCOc1ccccc1[C@H](Cn1c(=O)n(C(C)(C)C(=O)O)c(=O)c2c(C)c(-c3ncco3)sc21)OC1CCOCC1` [I-183, 2-[1-[(2R)-2-(2-ethoxyphenyl)-2-(oxan-4-yloxy)ethyl]-5-methyl-6-(1,3-oxazol-2-yl)-2,4-dioxo-1H,2H,3H,4H-thieno[2,3-d]pyrimidin-3-yl]-2-methylpropanoic acid], the IC50 is less than 0.1 µM.

In the case of `Cc1c(-c2ncco2)sc2c1c(=O)n(C(C)(C)C(=O)O)c(=O)n2C[C@H](O[C@H](C)CO)c1ccccc1` [I-184, 2-[1-[(2R)-2-[[(2R)-1-hydroxypropan-2-yl]oxy]-2-phenylethyl]-5-methyl-6-(1,3-oxazol-2-yl)-2,4-dioxo-1H,2H,3H,4H-thieno[2,3-d]pyrimidin-3-yl]-2-methylpropanoic acid], the IC50 is less than 1 µM.

As for `Cc1c(-c2ncco2)sc2c1c(=O)n(C(C)(C)C(=O)O)c(=O)n2C[C@H](O[C@@H](C)CO)c1ccccc1` [I-185, 2-[1-[(2R)-2-[[(2S)-1-hydroxypropan-2-yl]oxy]-2-phenylethyl]-5-methyl-6-(1,3-oxazol-2-yl)-2,4-dioxo-1H,2H,3H,4H-thieno[2,3-d]pyrimidin-3-yl]-2-methylpropanoic acid], the IC50 was less than 1 µM.

For the compound `Cc1c(-c2ncco2)sc2c1c(=O)n(C(C)(C)C(=O)O)c(=O)n2C[C@H](O[C@@H]1CCOC1)c1ccccc1` [I-186, 2-methyl-2-[5-methyl-6-(1,3-oxazol-2-yl)-2,4-dioxo-1-[(2R)-2-[(3R)-oxolan-3-yloxy]-2-phenylethyl]-1H,2H,3H,4H-thieno[2,3-d]pyrimidin-3-yl]propanoic acid], the IC50 was less than 1 µM.

Consider `Cc1c(-c2ncco2)sc2c1c(=O)n(C(C)(C)C(=O)O)c(=O)n2C[C@H](OC(=O)N1CC(O)C1)c1ccccc1` [I-230, 2-[1-[(2R)-2-[(3-hydroxyazetidin-1-yl)carbonyloxy]-2-phenylethyl]-5-methyl-6-(1,3-oxazol-2-yl)-2,4-dioxo-1H,2H,3H,4H-thieno[2,3-d]pyrimidin-3-yl]-2-methylpropanoic acid], for which the IC50 was less than 5 µM.

As for `Cc1c(-c2ncco2)sc2c1c(=O)n(C(C)(C)C(=O)O)c(=O)n2C[C@H](OC(=O)N1CCOCC1)c1ccccc1` [I-231, 2-methyl-2-[5-methyl-1-[(2R)-2-[(morpholin-4-yl)carbonyloxy]-2-phenylethyl]-6-(1,3-oxazol-2-yl)-2,4-dioxo-1H,2H,3H,4H-thieno[2,3-d]pyrimidin-3-yl]propanoic acid], the IC50 was less than 5 µM.

Turning to `Cc1c(-c2ncco2)sc2c1c(=O)n(C(C)(C)C(=O)O)c(=O)n2CCOC1CCOCC1` [I-233, 2-methyl-2-[5-methyl-1-[2-(oxan-4-yloxy)ethyl]-6-(1,3-oxazol-2-yl)-2,4-dioxo-1H,2H,3H,4H-thieno[2,3-d]pyrimidin-3-yl]propanoic acid], the IC50 is less than 5 µM.

For the compound `Cc1c(-c2ncco2)sc2c1c(=O)n(C(C)(C)C(=O)O)c(=O)n2CCOC(C)C` [I-234, 2-methyl-2-[5-methyl-6-(1,3-oxazol-2-yl)-2,4-dioxo-1-[2-(propan-2-yloxy)ethyl]-1H,2H,3H,4H-thieno[2,3-d]pyrimidin-3-yl]propanoic acid], the IC50 was less than 5 µM.

Take `COc1ccccc1[C@H](Cn1c(=O)n(C(C)(C)C(=O)NS(C)(=O)=O)c(=O)c2c(C)c(-c3ncco3)sc21)OC(C)C` [I-240, N-methanesulfonyl-2-[1-[(2R)-2-(2-methoxyphenyl)-2-(propan-2-yloxy)ethyl]-5-methyl-6-(1,3-oxazol-2-yl)-2,4-dioxo-1H,2H,3H,4H-thieno[2,3-d]pyrimidin-3-yl]-2-methylpropanamide]: the IC50 was less than 0.1 µM.

For `Cc1c(-c2ncco2)sc2c1c(=O)n(C(C)(C)C(=O)O)c(=O)n2C[C@@H](OC1CCOCC1)c1ccccc1Cl` [I-251, 2-[1-[(2S)-2-(2-chlorophenyl)-2-(oxan-4-yloxy)ethyl]-5-methyl-6-(1,3-oxazol-2-yl)-2,4-dioxo-1H,2H,3H,4H-thieno[2,3-d]pyrimidin-3-yl]-2-methylpropanoic acid], the IC50 was less than 5 µM.

Consider `COc1ccccc1[C@H](Cn1c(=O)n(C(C)(C)C(=O)NCCO)c(=O)c2c(C)c(-c3ncco3)sc21)OC(C)C` [I-257, N-(2-hydroxyethyl)-2-[1-[(2R)-2-(2-methoxyphenyl)-2-(propan-2-yloxy)ethyl]-5-methyl-6-(1,3-oxazol-2-yl)-2,4-dioxo-1H,2H,3H,4H-thieno[2,3-d]pyrimidin-3-yl]-2-methylpropanamide], for which the IC50 is less than 5 µM.

As to `COc1ccccc1[C@H](Cn1c(=O)n(C(C)(C)C(=O)O)c(=O)c2c(C)c(-c3ncco3)sc21)OC1COC1` [I-261, (R)-2-(1-(2-(2-methoxyphenyl)-2-(oxetan-3-yloxy)ethyl)-5-methyl-6-(oxazol-2-yl)-2,4-dioxo-1,2-dihydrothieno[2,3-d]pyrimidin-3(4H)-yl)-2-methylpropanoic acid], the IC50 was less than 5 µM.

For `COc1ccccc1[C@@H](Cn1c(=O)n(C(C)(C)C(=O)O)c(=O)c2c(C)c(-c3ncco3)sc21)OC1COC1` [I-262, (S)-2-(1-(2-(2-methoxyphenyl)-2-(oxetan-3-yloxy)ethyl)-5-methyl-6-(oxazol-2-yl)-2,4-dioxo-1,2-dihydrothieno[2,3-d]pyrimidin-3(4H)-yl)-2-methylpropanoic acid], the IC50 was less than 5 µM.

Turning to `CCc1ccccc1[C@@H](Cn1c(=O)n(C(C)(C)C(=O)O)c(=O)c2c(C)c(-c3ncco3)sc21)OCCO` [I-263, 2-[1-[(2S)-2-(2-ethylphenyl)-2-(2-hydroxyethoxy)ethyl]-5-methyl-6-(1,3-oxazol-2-yl)-2,4-dioxo-1H,2H,3H,4H-thieno[2,3-d]pyrimidin-3-yl]-2-methylpropanoic acid], the IC50 is less than 1 µM.

In the case of `COc1ccccc1[C@H](Cn1c(=O)n(CC(N)=O)c(=O)c2c(C)c(Br)sc21)OC1CCOCC1` [I-285, 2-[6-bromo-1-[(2R)-2-(2-methoxyphenyl)-2-(oxan-4-yloxy)ethyl]-5-methyl-2,4-dioxo-1H,2H,3H,4H-thieno[2,3-d]pyrimidin-3-yl]acetamide], the IC50 was less than 5 µM.

Turning to `COCc1ccccc1[C@H](Cn1c(=O)n(C(C)(C)C(=O)O)c(=O)c2c(C)c(-c3ncco3)sc21)OC1CCOCC1` [I-293, 2-[1-[(2R)-2-[2-(methoxymethyl)phenyl]-2-(oxan-4-yloxy)ethyl]-5-methyl-6-(1,3-oxazol-2-yl)-2,4-dioxo-1H,2H,3H,4H-thieno[2,3-d]pyrimidin-3-yl]-2-methylpropanoic acid], the IC50 was less than 0.1 µM.

In the case of `Cc1c(-c2ncco2)sc2c1c(=O)n(C(C)(C)C(=O)O)c(=O)n2C[C@H](OC1CCOCC1)c1ccccc1CO` [I-296, 2-[1-[(2R)-2-[2-(hydroxymethyl)phenyl]-2-(oxan-4-yloxy)ethyl]-5-methyl-6-(1,3-oxazol-2-yl)-2,4-dioxo-1H,2H,3H,4H-thieno[2,3-d]pyrimidin-3-yl]-2-methylpropanoic acid], the IC50 was less than 0.1 µM.
